#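 In this assay, cells in 96-well plates receive the compound at five concentrations for 48 hours. Endpoints are linearly interpolated between the surrounding concentrations. Abbreviation: GI50, concentration required for 50% inhibition of growth.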 Activity calls are given as the source filed them. Rule as the data show it: active = GI50 up to about 1.1 µM and inactive = higher.
# Key:
# Assay in all cases: inhibition of tumour cell growth, NCI panel, 48 h
# ACHN = test system: ACHN
# RXF 393 = test system: RXF 393
# MDA-N = test system: MDA-N
# U-251 = test system: U-251
# HOP-92 = test system: HOP-92
# OVCAR-5 = test system: OVCAR-5
# SF-295 = test system: SF-295
# HCT-116 = test system: HCT-116
# SK-OV-3 = test system: SK-OV-3
# OVCAR-8 = test system: OVCAR-8
# 786-0 = test system: 786-0
# HL-60 = test system: HL-60
# DU-145 = test system: DU-145
# TK-10 = test system: TK-10
# UO-31 = test system: UO-31
# COLO 205 = test system: COLO 205
# IGROV-1 = test system: IGROV-1
# M14 = test system: M14
# SK-MEL-2 = test system: SK-MEL-2
# UACC-62 = test system: UACC-62
Compound,GI50 (ACHN),GI50 (RXF 393),GI50 (MDA-N),GI50 (U-251),GI50 (HOP-92),GI50 (OVCAR-5),GI50 (SF-295),GI50 (HCT-116),GI50 (SK-OV-3),GI50 (OVCAR-8),GI50 (786-0),GI50 (HL-60),GI50 (DU-145),GI50 (TK-10),GI50 (UO-31),GI50 (COLO 205),GI50 (IGROV-1),GI50 (M14),GI50 (SK-MEL-2),GI50 (UACC-62)
N#CC(C#N)/N=N/c1ccc(-c2nc3ccccc3[nH]2)cc1,13.7 µM (inactive),19.2 µM (inactive),20 µM (inactive),28.1 µM (inactive),22.5 µM (inactive),> 100 µM (inactive),> 100 µM (inactive),15.4 µM (inactive),> 100 µM (inactive),23.1 µM (inactive),21.2 µM (inactive),0.288 µM (active),16.4 µM (inactive),30.8 µM (inactive),14 µM (inactive),7.57 µM (inactive),16.8 µM (inactive),20.8 µM (inactive),21.7 µM (inactive),
CCN1C(Cl)=NS(=O)(=O)c2ccccc21,16.5 µM (inactive),17.3 µM (inactive),29.1 µM (inactive),62.1 µM (inactive),18.8 µM (inactive),26.4 µM (inactive),> 100 µM (inactive),23.8 µM (inactive),71.6 µM (inactive),28.3 µM (inactive),19.3 µM (inactive),3.87 µM (inactive),36.7 µM (inactive),18.5 µM (inactive),16.9 µM (inactive),14.9 µM (inactive),23.1 µM (inactive),14.9 µM (inactive),39.7 µM (inactive),9.06 µM (inactive)
O=C1Oc2ccccc2C(=O)/C1=C\Nc1nc(-c2ccc(O)c(O)c2)cs1,2.88 µM (inactive),6.03 µM (inactive),4.98 µM (inactive),5.01 µM (inactive),13.5 µM (inactive),16.2 µM (inactive),24.8 µM (inactive),2.7 µM (inactive),7.24 µM (inactive),4.14 µM (inactive),2.54 µM (inactive),2.32 µM (inactive),4.94 µM (inactive),3.26 µM (inactive),2.79 µM (inactive),2.3 µM (inactive),7.76 µM (inactive),3.22 µM (inactive),2.47 µM (inactive),4.83 µM (inactive)
COc1cc(C2c3cc4c(cc3[C@H](OCCN(C)C)[C@@H]3COC(=O)C23)OCO4)cc(OC)c1O (some centres not stated),0.0293 µM (active),0.299 µM (active),2.12 µM (inactive),0.0468 µM (active),0.0989 µM (active),0.738 µM (active),0.0681 µM (active),0.753 µM (active),0.0912 µM (active),0.624 µM (active),0.0614 µM (active),< 0.01 µM (active),0.134 µM (active),2.51 µM (inactive),0.417 µM (active),1.73 µM (inactive),1.36 µM (inactive),0.244 µM (active),0.706 µM (active),0.0762 µM (active)
O=C(/C=C/c1ccccc1)N1CCCCC1,> 100 µM (inactive),> 100 µM (inactive),> 100 µM (inactive),> 100 µM (inactive),> 100 µM (inactive),> 100 µM (inactive),> 100 µM (inactive),> 100 µM (inactive),> 100 µM (inactive),> 100 µM (inactive),> 100 µM (inactive),> 100 µM (inactive),> 100 µM (inactive),> 100 µM (inactive),> 100 µM (inactive),> 100 µM (inactive),> 100 µM (inactive),> 100 µM (inactive),> 100 µM (inactive),> 100 µM (inactive)
CCc1nc(N)nc(N)c1-c1ccc([N+](=O)[O-])c(NCc2ccccc2)c1,15.3 µM (inactive),14.4 µM (inactive),16 µM (inactive),12.8 µM (inactive),10.6 µM (inactive),22.4 µM (inactive),10.4 µM (inactive),7.36 µM (inactive),20.4 µM (inactive),16.5 µM (inactive),13.9 µM (inactive),5.82 µM (inactive),14.9 µM (inactive),20.2 µM (inactive),6.18 µM (inactive),14.7 µM (inactive),10.9 µM (inactive),12.4 µM (inactive),21.6 µM (inactive),15.7 µM (inactive)
Cc1ccc(/N=C2N=C(Cl)/C(=C\c3ccccc3)N\2)cc1,,> 100 µM (inactive),51.9 µM (inactive),> 100 µM (inactive),> 100 µM (inactive),> 100 µM (inactive),> 79.3 µM (inactive),> 100 µM (inactive),> 100 µM (inactive),> 25.8 µM (inactive),> 100 µM (inactive),3.9 µM (inactive),64.6 µM (inactive),> 100 µM (inactive),79.1 µM (inactive),85.3 µM (inactive),> 100 µM (inactive),> 100 µM (inactive),> 100 µM (inactive),4.26 µM (inactive)
O=C(O)C(O)(c1ccc(-c2ccccc2)cc1)c1ccc(-c2ccccc2)cc1,32.1 µM (inactive),22 µM (inactive),17.1 µM (inactive),17.1 µM (inactive),19.1 µM (inactive),26.7 µM (inactive),34 µM (inactive),23.5 µM (inactive),,32.5 µM (inactive),24.5 µM (inactive),21.5 µM (inactive),16.6 µM (inactive),37.6 µM (inactive),42 µM (inactive),,23.4 µM (inactive),35 µM (inactive),14.1 µM (inactive),18.1 µM (inactive)
COC(=O)c1ccc(C)cc1CC1Cc2ccc(C)cc2C1=O (configuration not stated),22 µM (inactive),10.1 µM (inactive),1.75 µM (inactive),4.07 µM (inactive),23 µM (inactive),19.5 µM (inactive),10.7 µM (inactive),5.15 µM (inactive),9.08 µM (inactive),12.2 µM (inactive),13.7 µM (inactive),3.47 µM (inactive),22.9 µM (inactive),13 µM (inactive),19.9 µM (inactive),4.54 µM (inactive),7.87 µM (inactive),5.7 µM (inactive),11.9 µM (inactive),9.53 µM (inactive)
Cc1ccc(S(=O)(=O)N2CCNCCN(S(=O)(=O)c3ccc(C)cc3)CCNCC2)cc1,28.9 µM (inactive),2.65 µM (inactive),20.2 µM (inactive),20.2 µM (inactive),18.7 µM (inactive),43.4 µM (inactive),15.8 µM (inactive),15 µM (inactive),20.4 µM (inactive),19.2 µM (inactive),18.7 µM (inactive),10.2 µM (inactive),19.5 µM (inactive),18.3 µM (inactive),19.8 µM (inactive),16.4 µM (inactive),19.7 µM (inactive),18.1 µM (inactive),19.8 µM (inactive),18.8 µM (inactive)
CCOC(=O)/C(C#N)=C/c1ccc(SCc2ccco2)c([N+](=O)[O-])c1,> 100 µM (inactive),> 100 µM (inactive),> 100 µM (inactive),> 100 µM (inactive),> 100 µM (inactive),> 100 µM (inactive),> 100 µM (inactive),> 100 µM (inactive),> 100 µM (inactive),> 100 µM (inactive),> 100 µM (inactive),> 100 µM (inactive),> 100 µM (inactive),,> 100 µM (inactive),> 100 µM (inactive),> 100 µM (inactive),> 100 µM (inactive),> 100 µM (inactive),57 µM (inactive)
O=c1oc2ccc(Cl)cc2cc1-c1cn2ccsc2n1,60.5 µM (inactive),45.8 µM (inactive),46 µM (inactive),51.9 µM (inactive),12.4 µM (inactive),,29.2 µM (inactive),36.6 µM (inactive),83.6 µM (inactive),29.4 µM (inactive),58.5 µM (inactive),32.3 µM (inactive),95.7 µM (inactive),> 100 µM (inactive),34.3 µM (inactive),36.1 µM (inactive),20.5 µM (inactive),57.7 µM (inactive),50.6 µM (inactive),34.3 µM (inactive)
CCCCCn1c(=O)c2c(=O)[nH][nH]c2c2ccccc21,> 100 µM (inactive),> 100 µM (inactive),> 100 µM (inactive),> 100 µM (inactive),> 100 µM (inactive),> 100 µM (inactive),> 100 µM (inactive),> 100 µM (inactive),> 100 µM (inactive),> 100 µM (inactive),> 100 µM (inactive),> 100 µM (inactive),> 100 µM (inactive),> 100 µM (inactive),> 100 µM (inactive),> 100 µM (inactive),> 100 µM (inactive),,> 100 µM (inactive),> 100 µM (inactive)
C1C2CC3CC1CC(c1nn4c(C56CC7CC(CC(C7)C5)C6)nnc4s1)(C2)C3,> 100 µM (inactive),> 100 µM (inactive),> 100 µM (inactive),> 100 µM (inactive),> 100 µM (inactive),> 100 µM (inactive),> 100 µM (inactive),> 100 µM (inactive),> 100 µM (inactive),,> 100 µM (inactive),> 100 µM (inactive),> 100 µM (inactive),> 100 µM (inactive),> 100 µM (inactive),> 100 µM (inactive),> 100 µM (inactive),> 100 µM (inactive),> 100 µM (inactive),> 100 µM (inactive)

# Source: ChEMBL document CHEMBL1201862, “PubChem BioAssay data set” (2004)
